According to patent US9511058B2, “Methods for using carboxamide, sulfonamide and amine compounds” (Rigel Pharmaceuticals, Inc., priority 2010, dated 2016):

Target: AMPK
Assay: AMPK activation, enzyme-linked immunosorbent assay
Format: biochemical
Experimental: Compounds of Table 1 were assayed for their ability to activate AMPK using an enzyme-linked immunosorbent assay.
Compounds of Table 2 were assayed for their ability to activate AMPK using an enzyme-linked immunosorbent assay.
Compounds of Table 3 were assayed for their ability to activate AMPK using an enzyme-linked immunosorbent assay.
Compounds of Table 4 were assayed for their ability to activate AMPK using an enzyme-linked immunosorbent assay.
Compounds of Table 5 were assayed for their ability to activate AMPK using an enzyme-linked immunosorbent assay.

[1] = compounds of Table 5 (Table 10)

| Compound | EC50 [1] [µM] | also measured |
| --- | --- | --- |
| CC(C)(C)OC(=O)NCCCNC(=O)c1ccc(OC2CCN(c3ccc(C(F)(F)F)cc3)CC2)cn1 [1-49, tert-butyl 3-(5-(1-(4-(trifluoromethyl)phenyl)piperidin-4-yloxy)picolinamido) propylcarbamate] |  | EC50 (compounds of Table 1 (Table 6)): < 0.1 µM |
| O=C(O)c1ccc(CN2CCC(NC(=O)c3ccc(OC4CCN(c5ccc(C(F)(F)F)cc5)CC4)nc3)CC2)cc1 [1-46, 4-((4-(6-(1-(4-(trifluoromethyl)phenyl)piperidin-4-yloxy)nicotinamido)piperidin-1-yl)methyl)benzoic acid] |  | EC50 (compounds of Table 1 (Table 6)): 1 to 5 µM |
| O=C(NC1CCN(Cc2ccc(F)cc2)CC1)c1cc(OC2CCN(c3ccc(C(F)(F)F)cc3)CC2)ccn1 [1-29, N-(1-(4-fluorobenzyl)piperidin-4-yl)-4-(1-(4-(trifluoromethyl)phenyl)piperidin-4-yloxy)picolinamide] |  | EC50 (compounds of Table 1 (Table 6)): 0.1 to 0.5 µM |
| CC(C)(C)OC(=O)N1CCC(NC(=O)c2ccc3[nH]c4c(c3c2)CN(C(=O)OCc2ccccc2)CC4)CC1 [2-3, benzyl 8-(1-(tert-butoxycarbonyl)piperidin-4-ylcarbamoyl)-3,4-dihydro-1H-pyrido[4,3-b]indole-2(5H)-carboxylate] |  | EC50 (compounds of Table 2 (Table 7)): 10 to 50 µM |
| CC(C)(C)OC(=O)N1CCN(C(=O)c2ccc(OC3CCN(Cc4ccccc4)CC3)cc2)CC1 [5-99, tert-butyl 4-(4-(1-benzylpiperidin-4-yloxy)benzoyl)piperazine-1-carboxylate] | 1 to 10 |  |
| CC(C)(C)OC(=O)N1CC[C@H](NC(=O)c2cc3cc(OC4CCN(Cc5ccc(Cl)cc5)CC4)ccc3o2)C1 [1-127, (S)-tert-butyl 3-(5-(1-(4-chlorobenzyl)piperidin-4-yloxy)benzofuran-2-carboxamido)pyrrolidine-1-carboxylate] |  | EC50 (compounds of Table 1 (Table 6)): 1 to 5 µM |
| N#Cc1ccc(CN2CCC(NC(=O)c3ccc4[nH]c5c(c4c3)CN(S(=O)(=O)c3ccc(C(F)(F)F)cc3)CC5)CC2)cc1 [2-24, N-(1-(4-cyanobenzyl)piperidin-4-yl)-2-(4-(trifluoromethyl)phenylsulfonyl)-2,3,4,5-tetrahydro-1H-pyrido [4,3-b]indole-8-carboxamide] |  | EC50 (compounds of Table 2 (Table 7)): 1 to 5 µM |
| CC(C)(C)OC(=O)N1CCC(NC(=O)c2ccc3[nH]c4c(c3c2)CN(Cc2ccc(C(N)=O)cc2)CC4)CC1 [2-43, tert-butyl 4-(2-(4-carbamoylbenzyl)-2,3,4,5-tetrahydro-1H-pyrido[4,3-b]indole-8-carboxamido) piperidine-1-carboxylate] |  | EC50 (compounds of Table 2 (Table 7)): > 100 µM |
| O=C(NC1CCN(Cc2ccccc2)CC1)c1ccc(OC2CCN(Cc3ccc(Cl)cc3)CC2)c(Cl)c1 [5-65, N-(1-benzylpiperidin-4-yl)-3-chloro-4-(1-(4-chlorobenzyl)piperidin-4-yloxy)benzamide] | < 1 |  |
| O=C(NC1CCN(Cc2ccccc2)CC1)c1ccc(OC2CCN(Cc3ccc4c(c3)OCCO4)CC2)c(Cl)c1 [5-15, N-(1-benzylpiperidin-4-yl)-3-chloro-4-(1-((2,3-dihydrobenzo[b][1,4]dioxin-6-yl)methyl)piperidin-4-yloxy)benzamide] | < 1 |  |
| O=C(NC1CCN(Cc2ccccc2)CC1)c1ccc(OC2CCN(Cc3ccc(Cl)c(Cl)c3)CC2)c(F)c1 [5-82, N-(1-benzylpiperidin-4-yl)-4-(1-(3,4-dichlorobenzyl)piperidin-4-yloxy)-3-fluorobenzamide] | < 1 |  |
| O=C(NC1CCN(Cc2ccncc2)CC1)c1cc2cc(OC3CCN(Cc4ccc(Cl)cc4)CC3)ccc2o1 [1-77, 5-(1-(4-chlorobenzyl)piperidin-4-yloxy)-N-(1-(pyridin-4-ylmethyl)piperidin-4-yl)benzofuran-2-carboxamide] |  | EC50 (compounds of Table 1 (Table 6)): 0.1 to 0.5 µM |
| CC(C)(C)OC(=O)NCCCNC(=O)c1ccc(OC2CCN(Cc3ccccc3)CC2)c(Cl)c1 [5-102, tert-butyl 3-(4-(1-benzylpiperidin-4-yloxy)-3-chlorobenzamido)propylcarbamate] | 10 to 20 |  |
| COc1cc(C(=O)NC2CCN(Cc3ccccc3)CC2)ccc1OC1CCN(c2ccco2)CC1 [5-12, N-(1-benzylpiperidin-4-yl)-3-methoxy-4-(1-(furan-2-yl)piperidin-4-yloxy)benzamide] | 1 to 10 |  |
| NC(=O)c1ccc(CN2CCc3[nH]c4ccc(C(=O)NC5CCN(Cc6ccncc6)CC5)cc4c3C2)cc1 [2-45, 2-(4-carbamoylbenzyl)-N-(1-(pyridin-4-ylmethyl)piperidin-4-yl)-2,3,4,5-tetrahydro-1H-pyrido [4,3-b]indole-8-carboxamide] |  | EC50 (compounds of Table 2 (Table 7)): > 100 µM |
| N#Cc1ccc(CN2CCC(NC3CCc4cc(OC5CCN(c6ccc(C(F)(F)F)cc6)CC5)ccc43)CC2)cc1 (stereo not shown) [1-160, 4-((4-(5-(1-(4-(trifluoromethyl)phenyl)piperidin-4-yloxy)-2,3-dihydro-1H-inden-1-ylamino)piperidin-1-yl)methyl)benzonitrile] |  | EC50 (compounds of Table 1 (Table 6)): < 0.1 µM |
| O=S(=O)(NC1CCN(Cc2cccc(C(F)(F)F)c2)CC1)c1ccc(OC2CCN(c3ccc(C(F)(F)F)cc3)CC2)nc1 [1-59, N-(1-(3-(trifluoromethyl)benzyl)piperidin-4-yl)-6-(1-(4-(trifluoromethyl)phenyl)piperidin-4-yloxy)pyridine-3-sulfonamide] |  | EC50 (compounds of Table 1 (Table 6)): 0.1 to 0.5 µM |
| COc1cc(C(=O)NCCCN2CCOCC2)ccc1OC1CCN(Cc2ccc(Cl)cc2)CC1 [5-98] | 1 to 10 |  |
| Cn1cncc1CN1CCC(Oc2ccc(C(=O)NC3CCN(Cc4ccccc4)CC3)cc2)CC1 [5-4, N-(1-benzylpiperidin-4-yl)-4-(1-((1-methyl-1H-imidazol-5-yl)methyl)piperidin-4-yloxy)benzamide] | > 100 |  |
| N#Cc1ccc(CN2CCC(NC(=O)c3ccc(C(=O)NC4CCN(c5ccccc5)CC4)cc3)CC2)cc1 [3-32, N^1-(1-(4-cyanobenzyl)piperidin-4-yl)-N^4-(1-phenylpiperidin-4-yl)terephthalamide] |  | EC50 (compounds of Table 3 (Table 8)): 10 to 100 µM |
| CC(C)(C)OC(=O)N1CCC(NC(=O)c2nc3ccc(OC4CCN(c5ccc(C(F)(F)F)cc5)CC4)cc3o2)CC1 [3-1, tert-butyl 4-(6-(1-(4-(trifluoromethyl)phenyl)piperidin-4-yloxy)benzo[d]oxazole-2-carboxamido)piperidine-1-carboxylate] |  | EC50 (compounds of Table 3 (Table 8)): < 0.1 µM |
| Cc1c(C(=O)NC2CCNCC2)oc2cc(OC3CCN(c4ccc(C(F)(F)F)cc4)CC3)ccc12 [1-62, 3-methyl-N-(piperidin-4-yl)-6-(1-(4-(trifluoromethyl)phenyl)piperidin-4-yloxy)benzofuran-2-carboxamide] |  | EC50 (compounds of Table 1 (Table 6)): 5 to 10 µM |
| N#Cc1ccc(CN2CCC(NC(=O)c3ccc(C(=O)N4CCN(c5ccc(Cl)cc5)CC4)cc3)CC2)cc1 [3-29, 4-(4-(4-chlorophenyl)piperazine-1-carbonyl)-N-(1-(4-cyanobenzyl)piperidin-4-yl)benzamide] |  | EC50 (compounds of Table 3 (Table 8)): 10 to 100 µM |
| N#Cc1ccc(CN2CCC(NC(=O)c3ccc4[nH]c5c(c4c3)CN(Cc3ccc(F)cc3)CC5)CC2)cc1 [2-9, N-(1-(4-cyanobenzyl)piperidin-4-yl)-2-(4-fluorobenzyl)-2,3,4,5-tetrahydro-1H-pyrido[4,3-b]indole-8-carboxamide] |  | EC50 (compounds of Table 2 (Table 7)): < 0.5 µM |
| O=C(NC1CCN(Cc2ccncc2)CC1)c1cc2cc(OC3CCN(c4ccc(OC(F)(F)F)cc4)CC3)ccc2s1 [1-137, N-(1-(pyridin-4-ylmethyl)piperidin-4-yl)-5-(1-(4-(trifluoromethoxy)phenyl)piperidin-4-yloxy)benzo[b]thiophene-2-carboxamide] |  | EC50 (compounds of Table 1 (Table 6)): < 0.1 µM |

Now from value to molecule, other results behind:

| EC50 [1] [µM] | Compound | also measured |
| --- | --- | --- |
| 1 to 10 | CN1CCC(NC(=O)c2ccc(OC3CCN(Cc4ccc(C(F)(F)F)cc4)CC3)c(Cl)c2)CC1 [5-58, 3-chloro-N-(1-methylpiperidin-4-yl)-4-(1-(4-(trifluoromethyl)benzyl)piperidin-4-yloxy)benzamide] |  |
| < 1 | N#Cc1ccc(CN2CCC(NC(=O)c3ccc(OC4CCN(c5ccc(C#N)cc5)CC4)c(F)c3)CC2)cc1 [5-45, N-(1-(4-cyanobenzyl)piperidin-4-yl)-4-(1-(4-cyanophenyl)piperidin-4-yloxy)-3-fluorobenzamide] |  |
| < 1 | O=C(NC1CCN(Cc2ccccc2)CC1)c1ccc(OC2CCN(Cc3ccc(C(F)(F)F)cc3)CC2)c(F)c1 [5-55, N-(1-benzylpiperidin-4-yl)-3-fluoro-4-(1-(4-(trifluoromethyl)benzyl)piperidin-4-yloxy)benzamide] |  |
| < 1 | O=C(NC1CCN(Cc2ccccc2)CC1)c1ccc(OC2CCN(C(=O)c3ccc(C(F)(F)F)cc3)CC2)c(Cl)c1 [5-18, N-(1-benzylpiperidin-4-yl)-3-chloro-4-(1-(4-(trifluoromethyl)benzoyl)piperidin-4-yloxy)benzamide] |  |
| < 1 | O=C(NC1CCN(Cc2ccccc2)CC1)c1ccc(OC2CCN(Cc3ccc(C(F)(F)F)cc3)CC2)c(Cl)c1 [5-56, N-(1-benzylpiperidin-4-yl)-3-chloro-4-(1-(4-(trifluoromethyl)benzyl)piperidin-4-yloxy)benzamide] |  |
| < 1 | O=C(NC1CCN(Cc2ccccc2)CC1)c1ccc(OC2CCN(c3ccc(C(F)(F)F)cc3)CC2)c(Cl)c1 [5-17, N-(1-benzylpiperidin-4-yl)-3-chloro-4-(1-(4-(trifluoromethyl)phenyl)piperidin-4-yloxy)benzamide] |  |
| < 1 | CC(C)(C)c1ccc(CN2CCC(Oc3ccc(C(=O)NC4CCN(Cc5ccccc5)CC4)cc3Cl)CC2)cc1 [5-16, N-(1-benzylpiperidin-4-yl)-4-(1-(4-tert-butylbenzyl)piperidin-4-yloxy)-3-chlorobenzamide] |  |
| < 1 | O=C(NC1CCN(Cc2ccccn2)CC1)c1ccc(OC2CCN(c3ccc(C(F)(F)F)cc3)CC2)c(F)c1 [5-32, 3-fluoro-N-(1-(pyridin-2-ylmethyl)piperidin-4-yl)-4-(1-(4-(trifluoromethyl)phenyl)piperidin-4-yloxy)benzamide] |  |
| < 1 | O=C(NC1CCN(C(=O)c2ccc(F)cc2)CC1)c1ccc(OC2CCN(c3ccc(C(F)(F)F)cc3)CC2)c(F)c1 [5-31, 3-fluoro-N-(1-(4-fluorobenzoyl)piperidin-4-yl)-4-(1-(4-(trifluoromethyl)phenyl)piperidin-4-yloxy)benzamide] |  |
